Laboratory results reported in publication PMC6100582 (Molecules : A Journal of Synthetic Chemistry and Natural …, 2018).
In brackets after ≈: the same amount, converted by molar mass. Like-named read-outs stand apart in the source and are kept apart here.

Legend:
[1] = system: DND-41 (acute lymphoblastic leukemia); experiment: Antiproliferative screening (cytostatic activity); format: cell-based, human; settings: 72 h, IncuCyte imaging, read-out: IC50 DND-41
Experimental: Cytostatic activity was evaluated in vitro on nine different types of human tumor cell lines: Capan-1, Hap1, HCT-116, and NCI-H460, as well as hematological tumors such as DND-41, HL-60, K-562, MM.1S and Z-138 as described previously. All human tumor cell lines were acquired from the American Type Culture Collection (ATCC, Manassas, VA, USA), except for the DND-41 cell line which was purchased from the Deutsche Sammlung von Mikroorganismen und Zellkulturen (DSMZ Leibniz-Institut, Braunschweig, Germany) and the Hap1 cell line which was purchased from Horizon Discovery (Waterbeach, UK). Capan-1, Hap1, HL-60, K-562, Z-138, MM.1S and DND-41 were cultured in Iscove′s Modified Dulbecco′s Medium (IMDM, Gibco Life Technologies, Gaithersburg, MD, USA), HCT-116 were grown in McCoy′s 5A Medium (Gibco Life Technologies) and NCI-H460 were cultured in RPMI (Gibco Life Technologies). All media were supplemented with 10% FBS (HyClone, GE Healthcare Life Sciences, USA). Adherent cell lines HCT-116, Hap1, NCI-H460, and Capan-1 cells were seeded at a density between 400 and 1250 cells per well, in 384-well, black-walled, clear-bottomed tissue culture plates (Greiner Bio-One, Kremsmünster, Germany). After overnight incubation, cells were treated with test compounds at four different concentrations ranging from 100 to 0.8 µM. Suspension cell lines HL-60, K-562, Z-138, MM.1S, and DND-41 were seeded at densities ranging from 3000 to 10,000 cells per well in 384-well, black-walled, clear-bottomed tissue culture plates containing test compounds at the same four concentrations. The plates were incubated and monitored at 37 °C for 72 h in an IncuCyte (Essen BioScience Inc., Ann Arbor, MI, USA) for real-time imaging. Images were taken every 3 h, with one field image per well under 10× magnification. All compounds were tested with duplicate data points and averaged. […]

Yellow Fever Virus = experiment: microbe, parasite or virus in culture; format: cell-based; settings: Vero
MM.1S (multiple myeloma) = experiment: Antiproliferative screening (cytostatic activity); format: cell-based; settings: Homo sapiens, MM1.S; 72 h, IncuCyte imaging; read-out: IC50 MM.1S
How it was run: (§1)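 Cells in medium with 10% FBS, seeded and left overnight, then exposed to test compounds at four concentrations from 100 to 0.8 µM. Growth followed by imaging every 3 h, one field per well at 10×. Duplicate data points averaged.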

[2] = system: NCI-H460 (lung carcinoma); experiment: Antiproliferative screening (cytostatic activity); format: cell-based; settings: Homo sapiens, NCI-H460; 72 h, IncuCyte imaging; read-out: IC50 NCI-H460
How it was run: as §1

[3] = system: K-562 (chronic myeloid leukemia); experiment: Antiproliferative screening (cytostatic activity); format: cell-based; settings: Homo sapiens, K562; 72 h, IncuCyte imaging; read-out: IC50 K-562
How it was run: as §1

Sindbis Virus = experiment: microbe, parasite or virus in culture; format: cell-based; settings: Vero
[4] = system: Serratia marcescens ATCC 10905; experiment: Minimum biofilm eradication assay; format: cell-based
Experimental: (§2) MBECs of fumardiamides 4a–f and succindiamides 5a–f were determined as follows. Each well (96-well plate) was filled with 100 µl of bacterial (10^7 CFU/mL) or yeast (5 × 10^6 CFU/mL) suspension. When the inhibition of yeast biofilm formation was tested, the wells were pre-treated with fetal bovine serum (FBS) (250 µl per well). Negative controls contained broth only. Positive controls were performed using standard antimicrobial drugs gentamycin (Gen) and Amph, respectively. […] Following incubation period, each well was aspirated, washed three times and vigorously shaken to remove all non-adherent bacteria/yeast. The remaining attached cells were fixed with methanol (15 min) and the plates were left to dry overnight. Formed biofilm was stained with crystal violet (1%, 5 min). Excess stain was rinsed by placing the plate under running tap water and the plates were left to dry. Adherent cells were solubilized using ethanol. The absorbance was read at 570 nm. The MBEC value represents the lowest dilution of a compound at which bacteria fail to grow.

[5] = system: Bacillus cereus ATCC 11778; experiment: Minimum biofilm eradication assay; format: cell-based
Experimental: as §2

[6] = system: Staphylococcus aureus ATCC 6538; experiment: Minimum biofilm eradication assay; format: cell-based
Experimental: as §2

[7] = system: Acinetobacter baumannii MFBF 10913; experiment: Minimum biofilm eradication assay; format: cell-based
Experimental: as §2

[8] = system: Proteus mirabilis MFBF 10430; experiment: Minimum biofilm eradication assay; format: cell-based
Experimental: as §2

[9] = system: Pseudomonas aeruginosa ATCC 27853; experiment: Minimum biofilm eradication assay; format: cell-based
Experimental: as §2

[10] = system: Salmonella enteritidis MFBF 11945; experiment: Minimum biofilm eradication assay; format: cell-based
Experimental: as §2

[11] = system: Escherichia coli ATCC 10536; experiment: Minimum biofilm eradication assay; format: cell-based
Experimental: as §2

[12] = system: Bacillus subtilis ATCC 6633; experiment: Minimum biofilm eradication assay; format: cell-based
Experimental: as §2

[13] = system: Enterococcus faecalis ATCC 29212; experiment: Minimum biofilm eradication assay; format: cell-based
Experimental: as §2

[14] = system: Candida albicans ATCC 90028; experiment: In vitro antifungal susceptibility testing (MIC determination); format: cell-based; settings: ATCC90028
Para-Influenza-3 Virus = experiment: organism not typed; format: cell-based; settings: Vero cells
[15] = read-out: EC50 Yellow Fever Virus, MTS
[16] = read-out: EC50 Sindbis Virus, MTS
[17] = MTS, read-out: EC50 Para-Influenza-3 Virus, MTS
[18] = read-out: EC50 Yellow Fever Virus, Visual CPE Score
[19] = read-out: EC50 Sindbis Virus, Visual CPE Score
[20] = visual CPE score, read-out: EC50 Para-Influenza-3 Virus, Visual CPE Score

SMILES | IC50 ([1]; Homo sapiens, DND41, 72 h) [µM] | EC50 (Yellow Fever Virus; [15]) [µM] | IC50 (MM.1S (multiple myeloma)) [µM] | IC50 [2] [µM] | IC50 [3] [µM] | EC50 (Sindbis Virus; [16]) [µM] | MBEC [4] [µg/mL] | MBEC [5] [µg/mL] | MBEC [6] [µg/mL] | MBEC [7] [µg/mL] | MBEC [8] [µg/mL] | MBEC [9] [µg/mL] | MBEC [10] [µg/mL] | MBEC [11] [µg/mL] | MBEC [12] [µg/mL] | MBEC [13] [µg/mL] | MIC [14] [µg/mL] | EC50 (Para-Influenza-3 Virus; [17]) [µM] | melting point [°C] | EC50 (Yellow Fever Virus; [18]) [µM] | also measured
COc1cc(NC(C)CCCNC(=O)/C=C/C(=O)Nc2cccc(F)c2)c2ncccc2c1 (stereo not drawn) [Compound 4a, (2E)-N-(3-Fluorophenyl)-N′-{4-[(6-methoxyquinolin-8-yl)amino]pentyl}but-2-enediamide] | 6.7 | > 50 | 13 | 15.5 | 31.2 | > 50 | 25 | >100 | 12.5 | 6.3 | >100 | 25 | >100 | 100 | 50 | 25 | > 100 | > 50 | 203 to 204 | – | –
COc1cc(NC(C)CCCNC(=O)/C=C/C(=O)Nc2ccc(F)cc2)c2ncccc2c1 (stereo not drawn) [Compound 4b, (2E)-N-(4-Fluorophenyl)-N′-{4-[(6-methoxyquinolin-8-yl)amino]pentyl}but-2-enediamide] | > 100 | > 50 | > 100 | 29.1 | 70.5 | > 50 | >100 | 25 | 12.5 | 25 | 25 | 12.5 | >100 | 50 | 25 | 25 | > 100 | > 50 | 226 to 227 | – | –
COc1cc(NC(C)CCCNC(=O)/C=C/C(=O)Nc2cccc(Cl)c2)c2ncccc2c1 (stereo not drawn) [Compound 4c, (2E)-N-(3-Chlorophenyl)-N′-{4-[(6-methoxyquinolin-8-yl)amino]pentyl}but-2-enediamide] | 8.4 | > 50 | > 100 | 43.7 | > 100 | 3 | >100 | 25 | 12.5 | 100 | >100 | 50 | >100 | 50 | 50 | 25 | > 100 | > 50 | 187 to 188 | > 50 | EC50 (Sindbis Virus; [19]): > 50 µM; EC50 (Para-Influenza-3 Virus; [20]): > 50 µM
COc1cc(NC(C)CCCNC(=O)/C=C/C(=O)Nc2ccc(Cl)cc2)c2ncccc2c1 (stereo not drawn) [Compound 4d, (2E)-N-(4-Chlorophenyl)-N′-{4-[(6-methoxyquinolin-8-yl)amino]pentyl}but-2-enediamide] | > 100 | > 50 | > 100 | > 100 | > 100 | > 50 | >100 | >100 | 25 | 100 | >100 | >100 | >100 | 50 | >100 | 50 | 12.5 (≈ 26.8 µM) | > 50 | 223 to 226 | – | –
COc1cc(NC(C)CCCNC(=O)/C=C/C(=O)Nc2cccc(C(F)(F)F)c2)c2ncccc2c1 (stereo not drawn) [Compound 4e, (2E)-N′-{4-[(6-Methoxyquinolin-8-yl)amino]pentyl}-N-[3-(trifluoromethyl)phenyl]but-2-enediamide] | 8.9 | > 50 | > 100 | 34.2 | 71.2 | 5.3 | >100 | >100 | 50 | 100 | >100 | 50 | >100 | 50 | >100 | 50 | > 100 | > 50 | 149 to 150 | > 50 | EC50 (Sindbis Virus; [19]): 4.2 µM; EC50 (Para-Influenza-3 Virus; [20]): > 50 µM
COc1cc(NC(C)CCCNC(=O)/C=C/C(=O)Nc2ccc(C(F)(F)F)cc2)c2ncccc2c1 (stereo not drawn) [Compound 4f, (2E)-N′-{4-[(6-Methoxyquinolin-8-yl)amino]pentyl}-N-[4-(trifluoromethyl)phenyl]but-2-enediamide] | – | > 50 | > 100 | > 100 | > 100 | > 50 | >100 | >100 | 25 | 100 | >100 | 25 | >100 | 50 | >100 | 50 | > 100 | > 50 | 189 to 191 | – | IC50 [1]: > 100 µM
